System: voltage dependent calcium channels
Assay type: cell-based, chick

| Compound | effect on voltage dependent calcium channels (maximum current induced by depolarizing voltage steps) | reversibility of effect (washout) |
| --- | --- | --- |
| COC(=O)C1=C(C)NC(C)=C([N+](=O)[O-])C1c1ccccc1C(F)(F)F (stereo not drawn) [Bay-k 8644] | stimulates L-type calcium channels | reversibly |
| N=C(N)NC(=O)c1nc(Cl)c(N)nc1N [amiloride] | no effect on calcium ion channels |  |
| O=C1NC(=O)C(c2ccccc2)(c2ccccc2)N1 [phenytoin] | no effect on calcium ion channels |  |
| w-conotoxin MVIIA | high affinity for N-type calcium channels | irreversible |

Reference: patent publication US6470226B1 (priority 1997, dated 2002)
